From US9938258B2 (Karyopharm Therapeutics Inc., priority 2012, dated 2018)
Read-outs that look alike come from different tables or passages of the source.

Key:
MS751 cells = test: MTT cell proliferation assay, MS751; type: cell-based, human; conditions: Homo sapiens
Procedure, shortened: (§1)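 Cells plated at 5,000-10,000/well and attached overnight, then treated with eight compound concentrations from 1 nM to 30 μM. MTT added ~4 h, formazan solubilised and read at 490 nm. Percent inhibition versus negative control = (1-(ODo/OD))×100, mostly in duplicate, mean ± SE.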

Z138 cells = test: MTT cell proliferation assay, Z138; type: cell-based; conditions: Homo sapiens
Procedure, shortened: as §1

3T3 cells = test: MTT cell proliferation assay, 3T3; type: cell-based, mouse; conditions: Mus musculus
Procedure, shortened: as §1

[1] = MS751, MS751 cells, approximately 64-72 hours incubation, read-out: MTT Assay IC50, MS751
[2] = Z-138, Z138 cells, approximately 64-72 hours incubation, read-out: MTT Assay IC50, Z138
[3] = NIH3T3, 3T3 cells, approximately 64-72 hours incubation, read-out: MTT Assay IC50, 3T3
[4] = MS751, read-out: MTT Assay IC50, MS751
[5] = Z-138, read-out: MTT Assay IC50, Z138
[6] = NIH3T3, read-out: MTT Assay IC50, 3T3

Structure (SMILES) | IC50 (MS751 cells; [1]) | IC50 (Z138 cells; [2]) | IC50 (3T3 cells; [3]) | IC50 (MS751 cells; [4]) | IC50 (Z138 cells; [5]) | IC50 (3T3 cells; [6])
CC(=O)c1ccc(-c2cc(Cl)c3c(c2)CC(CNC(=O)/C=C/c2c(C)nn(-c4ccc(F)cc4)c2Cl)O3)s1 (stereo not drawn) [Compound 284, (E)-N-((5-(5-acetylthiophen-2-yl)-7-chloro-2,3-dihydrobenzofuran-2-yl)methyl)-3-(5-chloro-1-(4-fluorophenyl)-3-methyl-1H-pyrazol-4-yl)acrylamide] | > 30 µM | > 30 µM | > 30 µM |  |  | 
CC(=O)c1ccc(-c2cc(Cl)c3c(c2)CC(CNC(=O)/C=C/c2cc(C)n(-c4nccs4)c2C)O3)s1 (stereo not drawn) [Compound 285, (E)-N-((5-(5-Acetylthiophen-2-yl)-7-chloro-2,3-dihydrobenzofuran-2-yl)methyl)-3-(2,5-dimethyl-1-(thiazol-2-yl)-1H-pyrrol-3-yl)acrylamide] | > 30 µM | > 30 µM | > 30 µM |  |  | 
CC(=O)c1ccc(-c2cc(Cl)c3c(c2)CC(CNC(=O)/C(C#N)=C/c2ccoc2)O3)s1 (stereo not drawn) [Compound 286, (E)-N-((5-(5-acetylthiophen-2-yl)-7-chloro-2,3-dihydrobenzofuran-2-yl)methyl)-2-cyano-3-(furan-3-yl) acrylamide] |  |  |  | 5 to 30 µM | 5 to 30 µM | > 30 µM
CC(=O)c1ccc(-c2cc(Cl)c3c(c2)CC(CNC(=O)/C=C/c2c(C)nn4c(C(F)(F)F)ccnc24)O3)s1 (stereo not drawn) [Compound 287, (E)-N-((5-(5-acetylthiophen-2-yl)-7-chloro-2,3-dihydrobenzofuran-2-yl)methyl)-3-(2-methyl-7-(trifluoromethyl)pyrazolo[1,5-a]pyrimidin-3-yl) acryl amide] | > 30 µM | > 30 µM | > 30 µM |  |  | 
CC(=O)c1ccc(-c2cc(Cl)c3c(c2)CC(CNC(=O)/C=C/c2cc(C)n(-c4cc(C)on4)c2C)O3)s1 (stereo not drawn) [Compound 288, (E)-N-((5-(5-acetylthiophen-2-yl)-7-chloro-2,3-dihydrobenzofuran-2-yl)methyl)-3-(2,5-dimethyl-1-(5-methylisoxazol-3-yl)-1H-pyrrol-3-yl)acrylamide] | > 30 µM | > 30 µM | > 30 µM |  |  | 
CC(=O)c1ccc(-c2cc(Cl)c3c(c2)CC(CNC(=O)/C=C/c2cc4cnn(C(C)C)c4[nH]c2=O)O3)s1 (stereo not drawn) [Compound 289, (E)-N-((5-(5-acetylthiophen-2-yl)-7-chloro-2,3-dihydrobenzofuran-2-yl)methyl)-3-(1-isopropyl-6-oxo-6,7-dihydro-1H-pyrazolo[3,4-b]pyridin-5-yl)acrylamide] | 5 to 30 µM | 0.1 to 5 µM | > 30 µM |  |  | 
CC(=O)c1ccc(-c2cc(Cl)c3c(c2)CC(CNC(=O)/C=C/c2nc4ccccc4o2)O3)s1 (stereo not drawn) [Compound 290, (E)-N-((5-(5-acetylthiophen-2-yl)-7-chloro-2,3-dihydrobenzofuran-2-yl)methyl)-3-(benzo[d]oxazol-2-yl)acrylamide] | > 30 µM | > 30 µM | > 30 µM |  |  | 
CC(=O)c1ccc(-c2cc(Cl)c3c(c2)CC(CNC(=O)/C=C/c2sc4ccccc4c2Cl)O3)s1 (stereo not drawn) [Compound 291, (E)-N-((5-(5-acetylthiophen-2-yl)-7-chloro-2,3-dihydrobenzofuran-2-yl)methyl)-3-(3-chlorobenzo[b]thiophen-2-yl)acrylamide] | > 30 µM | > 30 µM | > 30 µM |  |  | 
CC(=O)c1ccc(-c2ccc3c(c2)CC(CNC(=O)/C=C/c2cccnc2)O3)s1 (stereo not drawn) [Compound 292, (E)-N-((5-(5-acetylthiophen-2-yl)-2,3-dihydrobenzofuran-2-yl)methyl)-3-(pyridin-3-yl)acrylamide] | 0.1 to 5 µM | 0.1 to 5 µM | 0.1 to 5 µM |  |  | 
CC(=O)c1ccc(-c2cc(Cl)c3c(c2)CC(CNC(=O)/C=C/c2ccno2)O3)s1 (stereo not drawn) [Compound 293, (E)-N-((5-(5-acetylthiophen-2-yl)-7-chloro-2,3-dihydrobenzofuran-2-yl)methyl)-3-(isoxazol-5-yl)acrylamide] | > 30 µM | > 30 µM | > 30 µM |  |  | 
CNc1ccc(/C=C/C(=O)NCC2Cc3cc(-c4ccc(C(C)=O)s4)cc(Cl)c3O2)cn1 (stereo not drawn) [Compound 294, (E)-N-((5-(5-acetylthiophen-2-yl)-7-chloro-2,3-dihydrobenzofuran-2-yl)methyl)-3-(6-(methylamino)pyridin-3-yl)acrylamide] | 0.1 to 5 µM | 0.1 to 5 µM | 5 to 30 µM |  |  | 
CC(=O)c1ccc(-c2cc(Cl)c3c(c2)CC(CNC(=O)/C=C/c2ccc(N(C)C)nc2)O3)s1 (stereo not drawn) [Compound 295, (E)-N-((5-(5-acetylthiophen-2-yl)-7-chloro-2,3-dihydrobenzofuran-2-yl)methyl)-3-(6-(dimethylamino)pyridin-3-yl)acrylamide] | > 30 µM | > 30 µM | > 30 µM |  |  | 
COc1ccc(/C=C/C(=O)NCC2Cc3cc(-c4ccc(C(C)=O)s4)cc(Cl)c3O2)cn1 (stereo not drawn) [Compound 296, (E)-N-((5-(5-acetylthiophen-2-yl)-7-chloro-2,3-dihydrobenzofuran-2-yl)methyl)-3-(6-methoxypyridin-3-yl)acrylamide] | 5 to 30 µM | 5 to 30 µM | > 30 µM |  |  | 
CC(=O)c1ccc(-c2cc(Cl)c3c(c2)CC(CNC(=O)/C=C/c2ccc(-c4ccc(F)cc4)s2)O3)s1 (stereo not drawn) [Compound 297, (E)-N-((5-(5-acetylthiophen-2-yl)-7-chloro-2,3-dihydrobenzofuran-2-yl)methyl)-3-(5-(4-fluorophenyl)thiophen-2-yl)acrylamide] | > 30 µM | > 30 µM | > 30 µM |  |  | 
CC(=O)c1ccc(-c2cc(Cl)c3c(c2)CC(CNC(=O)/C=C/c2cncc(F)c2)O3)s1 (stereo not drawn) [Compound 298, (E)-N-((5-(5-acetylthiophen-2-yl)-7-chloro-2,3-dihydrobenzofuran-2-yl)methyl)-3-(5-fluoropyridin-3-yl)acrylamide] | > 30 µM | 0.1 to 5 µM | > 30 µM |  |  | 
CC(=O)c1ccc(-c2cc(Cl)c3c(c2)CC(CNC(=O)/C=C\c2cccnc2)O3)s1 (stereo not drawn) [Compound 299, (Z)-N-((5-(5-acetylthiophen-2-yl)-7-chloro-2,3-dihydrobenzofuran-2-yl)methyl)-3-(pyridin-3-yl)acrylamide] | 0.1 to 5 µM | 0.1 to 5 µM | > 30 µM |  |  | 
Cc1noc(C)c1-c1cc(Cl)c2c(c1)CC(CNC(=O)/C=C/c1ccc(N)nc1)O2 (stereo not drawn) [Compound 300, (E)-3-(6-aminopyridin-3-yl)-N-((7-chloro-5-(3,5-dimethylisoxazol-4-yl)-2,3-dihydrobenzofuran-2-yl)methyl)acrylamide] | 0.1 to 5 µM | < 0.1 µM | > 30 µM |  |  | 
CC(=O)c1ccc(-c2cc(Cl)c3c(c2)CC(CNC(=O)/C=C/c2cc(C)n(-c4ccccc4)c2C)O3)s1 (stereo not drawn) [Compound 301, (E)-N-((5-(5-Acetylthiophen-2-yl)-7-chloro-2,3-dihydrobenzofuran-2-yl)methyl)-3-(2,5-dimethyl-1-phenyl-1H-pyrrol-3-yl)acrylamide] | > 30 µM | > 30 µM | > 30 µM |  |  | 
CC(=O)c1ccc(Oc2cc(Cl)c3c(c2)CC(CNC(=O)/C=C/c2cccnc2)O3)s1 (stereo not drawn) [Compound 303, (E)-N-((5-(5-acetylthiophen-2-yloxy)-7-chloro-2,3-dihydrobenzofuran-2-yl)methyl)-3-(pyridin-3-yl)acrylamide] | 0.1 to 5 µM | 0.1 to 5 µM | 0.1 to 5 µM |  |  | 
CC(C)(O)c1ccc(-c2cc(Cl)c3c(c2)CC(CNC(=O)/C=C/c2cccnc2)O3)s1 (stereo not drawn) [Compound 304, (E)-N-((7-chloro-5-(5-(2-hydroxypropan-2-yl)thiophen-2-yl)-2,3-dihydrobenzofuran-2-yl)methyl)-3-(pyridine-3-yl)acrylamide] | < 0.1 µM | < 0.1 µM | 0.1 to 5 µM |  |  | 
CC(=O)c1ccc(-c2cccc3c2OC(CNC(=O)/C=C/c2ccc(N)nc2)C3)s1 (stereo not drawn) [Compound 305, (E)-N-((7-(5-Acetylthiophen-2-yl)-2,3-dihydrobenzofuran-2-yl)methyl)-3-(6-aminopyridin-3-yl)acrylamide] | 0.1 to 5 µM | 0.1 to 5 µM | 5 to 30 µM |  |  | 
CC(O)c1ccc(-c2cc(Cl)c3c(c2)CC(CNC(=O)/C=C/c2ccc(N)nc2)O3)s1 (stereo not drawn) [Compound 306, (E)-3-(6-aminopyridin-3-yl)-N-((7-chloro-5-(5-(1-hydroxyethyl)thiophen-2-yl)-2,3-dihydrobenzofuran-2-yl)methyl)acrylamide] | 0.1 to 5 µM | 0.1 to 5 µM | > 30 µM |  |  | 
CC(O)c1ccc(-c2cc(Cl)c3c(c2)CC(CNC(=O)/C=C/c2cccnn2)O3)s1 (stereo not drawn) [Compound 307] | 0.1 to 5 µM | 0.1 to 5 µM | 0.1 to 5 µM |  |  | 
CC(=O)c1ccc(-c2cc(Cl)c3c(c2)CC(CNS(=O)(=O)/C=C/c2cccnc2)O3)s1 (stereo not drawn) [Compound 310, (E)-N-((5-(5-acetylthiophen-2-yl)-7-chloro-2,3-dihydrobenzofuran-2-yl)methyl)-2-(pyridine-3-yl) ethenesulphonamide] |  |  |  | > 30 µM | 5 to 30 µM | > 30 µM
CC(=O)c1ccc(-c2cc(Cl)c3c(c2)CC(CNC(=O)/C=C/c2ccc(O)nc2)O3)s1 (stereo not drawn) [Compound 311, (E)-N-((5-(5-acetylthiophen-2-yl)-7-chloro-2,3-dihydrobenzofuran-2-yl)methyl)-3-(6-hydroxypyridin-3-yl)acrylamide] |  |  |  | > 30 µM | > 30 µM | > 30 µM
CC(=O)c1ccc(-c2cc(Cl)c3c(c2)CC(CNC(=O)/C=C/c2cccnn2)O3)o1 (stereo not drawn) [Compound 314, (E)-N-((5-(5-acetylfuran-2-yl)-7-chloro-2,3-dihydrobenzofuran-2-yl)methyl)-3-(pyridazin-3-yl)acrylamide] | 0.1 to 5 µM | 0.1 to 5 µM | 0.1 to 5 µM |  |  | 
